According to the Deep4Chem optical property database:

Test: solvent given as SMILES

O=P(c1ccccc1)(c1ccccc1)c1cccc(-c2nc3ccccc3n2-c2cccc(P(=O)(c3ccccc3)c3ccccc3)c2)c1
absorption maximum (in ClCCl): 304 nm

O=C(O)c1ccccc1Nc1ccccc1
absorption maximum (in C1CCOC1): 353 nm | absorption maximum (in C1COCCO1): 353 nm | absorption maximum (in CC#N): 350 nm | absorption maximum (in CCOC(C)=O): 356 nm | absorption maximum (in CN(C)C=O): 341 nm | absorption maximum (in ClC(Cl)Cl): 357 nm

CCCCCCc1ccsc1-c1ccc2c(c1)C1=[N+]3C2=Cc2c4ccc(-c5sccc5CCCCCC)cc4c4n2[B-]3(Oc2ccccc21)Oc1ccccc1-4 (stereo unspecified)
absorption maximum (in C1CCOC1): 733 nm

C(=C\c1cc(-c2ccc3ccccc3c2)c(/C=C/c2ccc(N(c3ccccc3)c3ccccc3)cc2)cc1-c1ccc2ccccc2c1)/c1ccc(N(c2ccccc2)c2ccccc2)cc1
absorption maximum (in ClCCl): 419 nm

Cc1sc(Cl)cc1-c1nc(-c2ccc(Cl)cc2)[nH]c1-c1cc(Cl)sc1C
absorption maximum (in CC#N): 309 nm

CC1(C)C2=[N+](CCCCCC(=O)NCCNC(=O)CCCCCN3/C(=C/C=C/C=C/C=C/2)C(C)(C)c2cc(S(=O)(=O)[O-])ccc23)c2ccc(S(=O)(=O)[O-])cc21
absorption maximum (in CO): 755 nm | absorption maximum (in O): 750 nm

c1ccc(-c2ccc(-c3cc(-c4ccccn4)nc(-c4ccccn4)c3)cc2)cc1
absorption maximum (in ClCCl): 291 nm

COc1ccc2c(c1)-c1nc(-c3ccccc3)c3ccccc3[n+]1[B-](F)(F)O2
absorption maximum (in Cc1ccccc1): 434 nm

c1ccc(-c2cc3cccc4cc(-c5ccccc5)c5cc(-c6cc7[b-]8c(c6)c(-c6ccccc6)cc6cccc(cc7-c7ccccc7)[n+]86)cc2[b-]5[n+]34)cc1
absorption maximum (in C1CCCCC1): 444 nm

CCCCCCNC(=O)c1sc(-c2ccc(-c3cc(-c4ccc(C(C)(C)C)cc4)c(C(=O)NCCCCCC)s3)s2)cc1-c1ccc(C(C)(C)C)cc1
absorption maximum (in ClCCl): 392 nm

CN(C)c1ccc2c(-c3ccc(N)cc3C(=O)[O-])c3ccc(=[N+](C)C)cc-3oc2c1
absorption maximum (in CCO): 533 nm | absorption maximum (in O): 544 nm

c1ccc(-c2cc(-c3ccc(N4c5ccccc5C(c5ccccc5)(c5ccccc5)c5ccccc54)cc3)nc(-c3ccccc3)n2)cc1
absorption maximum (in Cc1ccccc1): 368.88 nm

CN(C)c1ccc(C2=Nc3sc4cc(Cl)ccc4[n+]3[B-](F)(F)O2)cc1
absorption maximum (in C1CCOC1): 430 nm | absorption maximum (in CC#N): 426 nm | absorption maximum (in CC(C)=O): 430 nm | absorption maximum (in Cc1ccccc1): 427 nm | absorption maximum (in ClCCl): 430 nm

N#Cc1cc2ccc(O)cc2oc1=N
absorption maximum (in C1CCOC1): 360 nm | absorption maximum (in CC#N): 356 nm | absorption maximum (in CCOC(C)=O): 362 nm | absorption maximum (in CS(C)=O): 355 nm | absorption maximum (in ClC(Cl)Cl): 364 nm

CC(C)(C)c1cc(C[n+]2ccc(-c3cc[n+](Cc4cc(C(C)(C)C)cc(C(C)(C)C)c4)cc3)cc2)cc(C(C)(C)C)c1
absorption maximum (in CC#N): 259 nm

COC(=O)CNC(=O)CCNc1cccc2ccccc12
absorption maximum (in CCO): 330 nm

CCOC(=O)c1c2c3c(ccc(Br)c3c3cc4c(cc13)[Si](C)(C)O[Si]4(C)C)N(C)C2=O
absorption maximum (in CC#N): 382 nm

COc1ccc(-c2cc3ccccc3p2-c2ccccc2)cc1 (stereo unspecified)
absorption maximum (in C1CCOC1): 340 nm

Cc1c(COC(=O)c2ccccc2)n2c(OCC(=O)c3ccccc3)c(C)c(=O)n2c1=O
absorption maximum (in CCO): 381 nm

Fc1c(F)c(-n2c3ccccc3c3ccccc32)c(F)c(F)c1/C=C/c1ccc(C(=C(c2ccccc2)c2ccccc2)c2ccccc2)cc1
absorption maximum (in Cc1ccccc1): 367 nm

COc1nnc(Cl)nn1
absorption maximum (in ClCCl): 520 nm | absorption maximum (in OCC(F)(F)F): 518 nm

CCn1c2ccccc2c2cc(C#Cc3cc(C#Cc4ccc5c(c4)c4ccccc4n5CC)nc(C#N)n3)ccc21
absorption maximum (in C1CCOC1): 410 nm | absorption maximum (in CCOC(C)=O): 405 nm | absorption maximum (in CN(C)C=O): 411 nm | absorption maximum (in Cc1ccccc1): 410 nm | absorption maximum (in ClCCl): 415 nm

Cc1cc(C2=Cc3cccc[n+]3[B-](F)(F)O2)ccc1N(C)C
absorption maximum (in ClC(Cl)Cl): 400 nm

CC(=O)c1nc(-c2ccc(C)cc2)oc1C
absorption maximum (in CC#N): 271 nm | absorption maximum (in CCCCCC): 272 nm | absorption maximum (in CCO): 271 nm | absorption maximum (in CCOC(C)=O): 273 nm | absorption maximum (in CCOCC): 271 nm | absorption maximum (in ClCCl): 271 nm

COc1cc(C)c2c(c1C)OC(=O)c1c(C)c(Cl)c(O)c(Cl)c1O2
absorption maximum (in ClC(Cl)Cl): 342 nm

CCN(CC)c1ccc2cc(/C=C/C(=C(C#N)C#N)c3ccc(N(c4ccccc4)c4ccccc4)cc3)c(=O)oc2c1
absorption maximum (in CC(C)=O): 516 nm | absorption maximum (in CCOC(C)=O): 507 nm | absorption maximum (in CN(C)C=O): 528 nm | absorption maximum (in CS(C)=O): 536 nm | absorption maximum (in Cc1ccccc1): 493 nm | absorption maximum (in ClCCl): 518 nm

CN(C)c1ccc(-c2nc3c(c4c2-c2ccc(C#N)cc2CC4)-c2ccc(C#N)cc2CC3)cc1
absorption maximum (in C1CCOC1): 344 nm | absorption maximum (in CC#N): 343 nm | absorption maximum (in CCCCCC): 348 nm | absorption maximum (in CCOC(C)=O): 333 nm | absorption maximum (in CO): 332 nm | absorption maximum (in CS(C)=O): 344 nm | absorption maximum (in Cc1ccccc1): 344 nm | absorption maximum (in ClCCl): 342 nm

N#Cc1nn(-c2ccc(F)cc2)nc1N1CCCC1
absorption maximum (in CC#N): 340 nm

CCCCN(CCCC)c1ccc(/C=C/c2ccc(-c3ccc(/C=C/c4ccc(N(CCCC)CCCC)cc4)cc3)cc2)cc1
absorption maximum (in CS(C)=O): 412.9 nm | absorption maximum (in Cc1ccccc1): 399.3 nm

CCCCC1(c2ccccc2)Nc2c(-c3ccc(N(c4ccccc4)c4ccccc4)cc3)ccc(-c3ccc(N(c4ccccc4)c4ccccc4)cc3)c2N=C1c1ccccc1 (stereo unspecified)
absorption maximum (in ClC(Cl)Cl): 370 nm

O=Cc1ccc(-c2ccc(C3=CCCCC3)s2)s1
absorption maximum (in C1CCOC1): 385 nm | absorption maximum (in CC#N): 358 nm | absorption maximum (in CCCCCC): 381 nm | absorption maximum (in CCO): 389 nm | absorption maximum (in OCCOCCO): 389 nm | absorption maximum (in c1ccncc1): 392 nm

CCc1c(C)c2n(c1C)[B-](F)(F)[N+]1=C(NCc3ccc(OC)cc3)C=CC1=C2C
absorption maximum (in CC#N): 524 nm | absorption maximum (in CCCCCC): 534 nm | absorption maximum (in CCOC(C)=O): 527 nm | absorption maximum (in CO): 525 nm | absorption maximum (in ClCCl): 531 nm

c1ccc(-n2cccc2)cc1
absorption maximum (in CC#N): 252 nm | absorption maximum (in CCCCCC): 254 nm

c1ccc2c(c1)-c1ccccc1C21c2ccccc2-c2cccnc21
absorption maximum (in CC1CCCO1): 313 nm

CCOC(=O)C1=CN(c2ccccc2)C=C(C(=O)OCC)C1
absorption maximum (in C1CCOC1): 376 nm | absorption maximum (in CO): 380 nm

N#Cc1ccc(C#Cc2ccc(C#Cc3ccc(C#Cc4ccccc4C#N)cc3C#N)cc2C#N)cc1
absorption maximum (in C1CCOC1): 356 nm | absorption maximum (in CC#N): 352 nm | absorption maximum (in CN(C)C=O): 357 nm | absorption maximum (in ClC(Cl)Cl): 357 nm | absorption maximum (in c1ccccc1): 358 nm

CCN(CC)c1ccc(/C=C2\CC/C(=C\c3ccc(N(c4ccc(/C=C5\CC/C(=C\c6ccc(N(CC)CC)cc6)C5=C(C#N)C#N)cc4)c4ccc(/C=C5\CC/C(=C\c6ccc(N(CC)CC)cc6)C5=C(C#N)C#N)cc4)cc3)C2=C(C#N)C#N)cc1
absorption maximum (in CN(C)C=O): 590 nm

CC(C)(C)c1ccc2c(c1)c1cc(C(C)(C)C)ccc1n2-c1ccc(C(=O)c2ccc(-n3c4ccc(C(C)(C)C)cc4c4cc(C(C)(C)C)ccc43)nc2)cn1
absorption maximum (in C1CCOC1): 377.31 nm | absorption maximum (in Cc1ccccc1): 383.97 nm | absorption maximum (in ClCCl): 382.72 nm

[NH3+]c1ccc2ccc(O)cc2c1
absorption maximum (in O): 328 nm

COc1ccc(-c2ccc3c(c2)c2cc(-c4ccc(OC)cc4)ccc2n3-c2ccc(C(=O)c3ccc4sc5ccccc5c4c3)nc2)cc1
absorption maximum (in Cc1ccccc1): 390 nm

CC(C)[Si](C#Cc1c2cc3ccccc3cc2c(C#C[Si](C(C)C)(C(C)C)C(C)C)c2nc3c(ccc4cc5ccccc5cc43)nc12)(C(C)C)C(C)C
absorption maximum (in CCCCCC): 644 nm
